From PubChem BioAssay AID1963845 (Molecular Pharmacology Branch, DTP, NCI, 2024)
Where “and” joins values, the source holds several entries; their conditions need not be identical. Equal entries are not always repeated.

Test system: 429239-143-T-J1-PDC complex spheroid viability
Assay: Anticancer human tumor 429239-143-T-J1-PDC patient-derived small cell lung carcinoma cell line growth inhibition [POLQ]
Details: for viability, T/C: stronger effect = lower value
Method: Multicellular complex tumor spheroid response to Polymerase (POL) inhibitors (novobiocin, ART-558, RP6685) in combination with a variety of drugs and investigational agents in selected tumor cell lines
The POL inhibitors (novobiocin, ART-558, and RP6685) were evaluated both individually and in combination with standard of care and investigational anticancer small molecules within a complex spheroid model of solid tumors. . Complex spheroids include a stromal component modeled by human endothelial cells (HUVEC) and fibroblasts modeled by human mesenchymal stem cells (MSCs). The concentration ranges selected for each drug and investigational agent were based upon clinically achievable concentrations if the clinical Cmax of the agent was known.
Compounds. The drugs and investigational agents: novobiocin (NSC847541), ART-558 (NSC835418), RP-6685 (NSC848927), peposertib (NSC802822), ceralasertib (NSC780249), elimusertib (NSC800525), camonsertib (NSC841442), AZD-1390 (NSC803789), olaparib (NSC753686), talazoparib (NSC767125), rucaparib (NSC756644), sotorasib (NSC818433), MRTX-1133 (NSC836407), SN-38 (NSC673596), topotecan (NSC609699), epotoside (NSC141540), doxorubicin (NSC123127), gemcitabine (NSC613327), 5-fluorouracil (NSC19893), paclitaxel (NSC125973), vemurafenib (NSC761431), MSA-2 (NSC828583), SN-011 (NSC837082), adavosertib (NSC754352), prexasertib (NSC758257), carboplatin (NSC241240) and oxaliplatin (NSC266046), were obtained from the National Cancer Institute (NCI) Developmental Therapeutics Program Chemical Repository (21). The FDA-approved anticancer drug set is available from the Developmental Therapeutics Program at https://dtp.cancer.gov/organization/dscb/obtaining/. […] The stock solutions were prepared in dimethyl sulfoxide (DMSO, Sigma-Aldrich, St. Louis, MO, cat. D2650), except for the platinum compounds which were prepared in saline (Quality Biological, Gaithersburg, MD, cat. 114-055-101), at 800-fold the tested concentration and stored at -70 degrees C prior to their use. All drugs and investigational agents were tested over a range starting from a high concentration at or near the clinical Cmax and decreasing in half-log increments. If the clinical Cmax for an agent had not been determined, the highest concentration tested was 10 microM, except for SN-38, which was tested at a high concentration of 1 microM.
Cell Culture. All cells were maintained in an incubator at 37 degrees C and 5% CO2 with 95% humidity. The PDC lines were cultured according to standard operating procedures established by the NCI PDMR (https://pdmr.cancer.gov). Table 3 of the manuscript, lists the cell lines along with the number of the three cell types plated to form the mct-spheroids and media for tumor cell growth. After thawing, all PDC lines, except 997537-175-T-J1-PDC and 415267-285-R-J2-PDC, were cultured in Matrigel-coated flasks prepared with a working solution of 1X Ham's F-12 nutrient mix, without supplementation (Thermo Fisher Scientific, cat. 11765054), 100 U/mL penicillin-streptomycin (Thermo Fisher Scientific, cat. 15140122), and 2.5% Matrigel (Corning Inc., Corning, NY, cat. 354248) for the first three passages. The two PDC lines 997537-175-T-J1-PDC and 415267-285-R-J2-PDC were cultured on uncoated flasks. The 857933-349-R-J2-PDC line was cultured in 6C/Colon 1B media containing advanced DMEM/F-12 (Thermo Fisher Scientific, cat. 12634028), 10 mM HEPES (Thermo Fisher Scientific, cat. 15630080), 1X GlutaMAX supplement (Thermo Fisher Scientific, cat. 35050061), 0.1 mg/mL primocin (InvivoGen, San Diego, CA, cat. ant-pm-2), 10% defined fetal bovine serum, heat inactivated (HyClone Laboratories Inc., Logan, UT, cat. SH30070.03HI), 50% L-WRN conditioned media (ATCC, cat. CRL-3276), 1.25 mM N-Acetyl-L-cysteine (Sigma-Aldrich, cat. A9165), 10 mM nicotinamide (Sigma-Aldrich, cat. N0636), 1X B-27 supplement (Thermo Fisher Scientific, cat. 17504044), 1X N-2 supplement (Thermo Fisher Scientific, cat. […]

[1] = curve of first compound, second compound 0.0316 µM
[2] = curve of first compound, second compound 0.1 µM
[3] = curve of first compound, second compound 0.316 µM
[4] = curve of first compound, second compound 1 µM
[5] = curve of first compound, second compound 3.16 µM
[6] = curve of first compound, second compound 10 µM
[7] = second compound 0.0316 µM, first compound 0.0316 µM
[8] = second compound 0.0316 µM, first compound 0.1 µM
[9] = second compound 0.0316 µM, first compound 0.316 µM
[10] = second compound 0.0316 µM, first compound 1 µM
[11] = second compound 0.0316 µM, first compound 3.16 µM
[12] = second compound 0.0316 µM, first compound 10 µM
[13] = second compound 0.1 µM, first compound 0.0316 µM
[14] = second compound 0.1 µM, first compound 0.1 µM
[15] = second compound 0.1 µM, first compound 0.316 µM
[16] = second compound 0.1 µM, first compound 1 µM
[17] = second compound 0.1 µM, first compound 3.16 µM
[18] = second compound 0.1 µM, first compound 10 µM
[19] = second compound 0.316 µM, first compound 0.0316 µM
[20] = second compound 0.316 µM, first compound 0.1 µM
[21] = second compound 0.316 µM, first compound 0.316 µM
[22] = second compound 0.316 µM, first compound 1 µM
[23] = second compound 0.316 µM, first compound 3.16 µM
[24] = second compound 0.316 µM, first compound 10 µM
[25] = second compound 1 µM, first compound 0.0316 µM
[26] = second compound 1 µM, first compound 0.1 µM
[27] = second compound 1 µM, first compound 0.316 µM
[28] = second compound 1 µM, first compound 1 µM
[29] = second compound 1 µM, first compound 3.16 µM
[30] = second compound 1 µM, first compound 10 µM
[31] = second compound 3.16 µM, first compound 0.0316 µM
[32] = second compound 3.16 µM, first compound 0.1 µM
[33] = second compound 3.16 µM, first compound 0.316 µM
[34] = second compound 3.16 µM, first compound 1 µM
[35] = second compound 3.16 µM, first compound 3.16 µM
[36] = second compound 3.16 µM, first compound 10 µM
[37] = second compound 10 µM, first compound 0.0316 µM
[38] = second compound 10 µM, first compound 0.1 µM
[39] = second compound 10 µM, first compound 0.316 µM
[40] = second compound 10 µM, first compound 1 µM
[41] = second compound 10 µM, first compound 3.16 µM
[42] = second compound 10 µM, first compound 10 µM
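Note: luminescence signal used as surrogate measure of viable cells; spheroids exposed to compounds for seven days before readout.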
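Throughout, for viability, T/C: 100% = DMSO vehicle control viability as luminescence relative to vehicle.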

CCc1cc2c(N3CCc4c(cc(Cn5ccnc5)cc4-c4cn(C)nc4C(F)(F)F)C3=O)ccnc2c(OC)n1 + Cc1cccc(N(C)C(=O)C2C(O)CCN2c2nc(C)cc(C(F)(F)F)c2C#N)c1
IC50 [1]: > 10000 nM
IC50 [2]: > 10000 nM
IC50 [3]: > 10000 nM
IC50 [4]: > 10000 nM
IC50 [5]: > 10000 nM
IC50 [6]: 8420 nM
viability, T/C [7]: 117%
viability, T/C [8]: 102%
viability, T/C [9]: 98.2%
viability, T/C [10]: 88.4%
viability, T/C [11]: 85.3%
viability, T/C [12]: 49.8%
viability, T/C [13]: 103%
viability, T/C [14]: 113%
viability, T/C [15]: 93.2%
viability, T/C [16]: 89.1%
viability, T/C [17]: 85.7%
viability, T/C [18]: 57.6%
viability, T/C [19]: 116%
viability, T/C [20]: 97.8%
viability, T/C [21]: 96.8%
viability, T/C [22]: 86%
viability, T/C [23]: 78.3%
viability, T/C [24]: 56.6%
viability, T/C [25]: 107%
viability, T/C [26]: 95.4%
viability, T/C [27]: 89.2%
viability, T/C [28]: 87.8%
viability, T/C [29]: 86.7%
viability, T/C [30]: 56.6%
viability, T/C [31]: 104%
viability, T/C [32]: 108%
viability, T/C [33]: 96.5%
viability, T/C [34]: 95.6%
viability, T/C [35]: 77.7%
viability, T/C [36]: 50.8%
viability, T/C [37]: 111%
viability, T/C [38]: 91.8%
viability, T/C [39]: 104%
viability, T/C [40]: 96.5%
viability, T/C [41]: 72.2%
viability, T/C [42]: 46.1%

CC[C@@]1(O)C(=O)OCc2c1cc1n(c2=O)Cc2cc3c(CN(C)C)c(O)ccc3nc2-1
viability, T/C (compound 0.000316 µM): 98.5% and 98.7% and 92.7%
viability, T/C (compound 0.001 µM): 96.4% and 98.7% and 99.2%
viability, T/C (compound 0.00316 µM): 99.3% and 95.3% and 99.2%
viability, T/C (compound 0.01 µM): 64% and 86.4% and 63.1%
viability, T/C (compound 0.0316 µM): 18% and 9.22% and 16.4%
viability, T/C (compound 0.1 µM): 16% and 6.06% and 17.5%
IC50 (curve of compound): 14.1 nM and 17.2 nM and 13.9 nM

CC1COCCN1c1cc(C2(S(C)(=N)=O)CC2)nc(-c2ccnc3[nH]ccc23)n1 (stereo unspecified) + Cc1cccc(N(C)C(=O)C2C(O)CCN2c2nc(C)cc(C(F)(F)F)c2C#N)c1
IC50 [1]: 2210 nM
IC50 [2]: 2100 nM
IC50 [3]: 2020 nM
IC50 [4]: 2100 nM
IC50 [5]: 2320 nM
IC50 [6]: 2410 nM
viability, T/C [7]: 108%
viability, T/C [8]: 105%
viability, T/C [9]: 92.9%
viability, T/C [10]: 77.3%
viability, T/C [11]: 37.2%
viability, T/C [12]: 15.9%
viability, T/C [13]: 105%
viability, T/C [14]: 106%
viability, T/C [15]: 96.7%
viability, T/C [16]: 72.9%
viability, T/C [17]: 37.6%
viability, T/C [18]: 16%
viability, T/C [19]: 101%
viability, T/C [20]: 99.6%
viability, T/C [21]: 97.2%
viability, T/C [22]: 73.6%
viability, T/C [23]: 34.9%
viability, T/C [24]: 17.3%
viability, T/C [25]: 91.2%
viability, T/C [26]: 98.9%
viability, T/C [27]: 89.7%
viability, T/C [28]: 75.7%
viability, T/C [29]: 35.8%
viability, T/C [30]: 17.7%
viability, T/C [31]: 96.9%
viability, T/C [32]: 97.6%
viability, T/C [33]: 94.5%
viability, T/C [34]: 71.3%
viability, T/C [35]: 42.6%
viability, T/C [36]: 18.3%
viability, T/C [37]: 105%
viability, T/C [38]: 103%
viability, T/C [39]: 98.4%
viability, T/C [40]: 60.2%
viability, T/C [41]: 50.3%
viability, T/C [42]: 17.8%
